Counter-ions that a name gives are not always drawn. Like-named read-outs stand apart in the source and are kept apart here.
Assays:
various organisms = experiment: Microdilution checkerboard method, combination with ciprofloxacin (MIC and FIC); format: cell-based; details: single agent
[1] = system: super sensitive Gram-negative Escherichia coli (E. coli) BAS849; experiment: Antibacterial activity, microbroth dilution MIC, E. coli BAS849; format: cell-based; details: Escherichia coli, read-out: MIC, BAS849
[2] = system: control Gram-negative E. coli 25922 strain; experiment: Antibacterial activity, microbroth dilution MIC, E. coli 25922; format: cell-based, Escherichia coli; details: Escherichia coli; E. coli 25922, microbroth dilution; read-out: MIC, 25922
[3] = system: Gram-positive Staphylococcus aureus (S. aureus) 29213; experiment: Antibacterial activity, microbroth dilution MIC, S. aureus 29213; format: cell-based; details: Staphylococcus aureus; S. aureus 29213, microbroth dilution; read-out: MIC, 29213
[4] = system: quinolone resistant E. coli LZ3111; experiment: Antibacterial activity, MIC, quinolone resistant E. coli LZ3111; format: cell-based, Escherichia coli; details: Escherichia coli, read-out: MIC, LZ3111
Excerpt: (§1) The antibacterial activity from a microbroth dilution method may be presented as the minimum inhibitory concentration (MIC in […]). The MIC value is the lowest concentration of a drug which prevents macroscopically visible bacterial growth under test conditions.
Mutations in these regions are known to confer a high level resistance to the quinolone class of antibiotics.

[5] = system: E. coli ELZ4000 (MDR clinical isolate); experiment: Antibacterial activity, MIC, MDR E. coli ELZ4000; format: cell-based, Escherichia coli; details: Escherichia coli; E. coli ELZ4000, MDR clinical isolate; read-out: MIC ELZ4000
[6] = system: E. coli ELZ4251 (MDR clinical isolate); experiment: Antibacterial activity, MIC, MDR E. coli ELZ4251; format: cell-based, Escherichia coli; details: Escherichia coli, E. coli ELZ4251, MDR clinical isolate; read-out: MIC ELZ4251
[7] = system: Acinetobacter baumannii (A. baumannii) BAA747; experiment: Antibacterial activity, MIC, A. baumannii BAA747; format: cell-based; details: Acinetobacter baumannii; A. baumannii BAA747; read-out: MIC BAA747
[8] = system: Klebsiella pneumoniae (K. pneumoniae) 35657; experiment: Antibacterial activity, MIC, K. pneumoniae 35657; format: cell-based; details: Klebsiella pneumoniae
[9] = system: resistant A. baumannii MXX2240 (MDR clinical isolate); experiment: Antibacterial activity, MIC, resistant A. baumannii MXX2240; format: cell-based, Acinetobacter baumannii; details: Acinetobacter baumannii, resistant A. baumannii MMX2240, MDR clinical isolate; read-out: MIC MMX2240
[10] = system: resistant K. pneumoniae MXX1232 (MDR clinical isolate); experiment: Antibacterial activity, MIC, resistant K. pneumoniae MXX1232; format: cell-based, Klebsiella pneumoniae; details: Klebsiella pneumoniae; resistant K. pneumoniae MMX1232, MDR clinical isolate; read-out: MIC MMX1232
[11] = system: Pseudomonas aeruginosa (P. aeruginosa) 27853; experiment: Antibacterial activity, MIC, P. aeruginosa 27853; format: cell-based; details: Pseudomonas aeruginosa, P. aeruginosa 27853; read-out: MIC 27853
Excerpt: as §1
Antibacterial activity of test compounds against the Gram-negative bacterium Pseudomonas aeruginosa (P. aeruginosa) 27853 is shown in Table 5.

[12] = system: Haemophilus influenzae (H. influenzae) 49247; experiment: Antibacterial activity, MIC, H. influenzae 49247; format: cell-based; details: Haemophilus influenzae; H. influenzae 49247; read-out: MIC 49247
Method in brief: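 A microbroth dilution method gave the minimum inhibitory concentration for each compound against H. influenzae 49247, a Gram-negative bacterium. MIC means the smallest concentration of drug at which no macroscopically visible bacterial growth appears under the conditions of the test.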

[13] = system: Moraxella catarrhalis (M. catarrhalis) 25238; experiment: Antibacterial activity, MIC, M. catarrhalis 25238; format: cell-based; details: Moraxella catarrhalis, M. catarrhalis 25238; read-out: MIC 25238
[14] = system: Neisseria meningitidis (N. meningitidis) 13090; experiment: Antibacterial activity, MIC, N. meningitidis 13090; format: cell-based; details: Neisseria meningitidis; N. meningitidis 13090; read-out: MIC 13090
[15] = E. coli BAS849, microbroth dilution

| Structure (SMILES) | MIC [1, 15] | MIC [2] | MIC [3] | MIC [4] | MIC [5] | MIC [6] | MIC [7] | MIC [8] | MIC [9] | MIC [10] | MIC [11] | MIC [12] | MIC [13] | MIC [14] | also measured |
| --- | --- | --- | --- | --- | --- | --- | --- | --- | --- | --- | --- | --- | --- | --- | --- |
| O=C(O)c1cn(C2CC2)c2cc(N3CCNCC3)c(F)cc2c1=O [Cipro, ciprofloxacin, reference compound] |  |  |  |  |  |  |  |  |  |  |  |  |  |  | MIC (various organisms; Acinetobacter baumannii, A. baumannii (MDR)): 125 µg/mL; MIC (various organisms; Acinetobacter baumannii, BAA747, A. baumannii BAA747): 0.098 µg/mL; MIC (various organisms; Escherichia coli, E. coli 3111): 125 µg/mL; MIC (various organisms; Escherichia coli, E. coli 25922): 0.013 µg/mL; MIC (various organisms; Klebsiella pneumoniae, K. pneumoniae 35657): 0.01 µg/mL; MIC (various organisms; Pseudomonas aeruginosa, P. aeruginosa 27853): 0.2 µg/mL; MIC (various organisms; Staphylococcus aureus, S. aureus 29213): 0.39 µg/mL; MIC (various organisms; Staphylococcus aureus, S. aureus (MDR)): 31.2 µg/mL |
| CCc1c(-c2ccc(N3C[C@H]4CC[C@@H](N(C)C)[C@H]4C3)cc2)[nH]c(=O)c(C(=O)O)c1O.Cl [Cpd 263, 6-{4-[(3aR,4R,6aS)-4-(dimethylamino)hexahydrocyclopenta[c]pyrrol-2(1H)-yl]phenyl}-5-ethyl-4-hydroxy-2-oxo-1,2-dihydropyridine-3-carboxylic acid hydrochloride] | < 1 µg/mL | 1 to 3.5 µg/mL | 12.5 to 150 µg/mL | 3.5 to 12.5 µg/mL | 12.5 to 150 µg/mL | 12.5 to 150 µg/mL | 3.5 to 12.5 µg/mL | 3.5 to 12.5 µg/mL | 12.5 to 150 µg/mL | 12.5 to 150 µg/mL | 12.5 to 150 µg/mL | 3.5 to 12.5 µg/mL | 1 to 3.5 µg/mL | 1 to 3.5 µg/mL |  |
| CCc1c(-c2ccc(N3C[C@H]4CC[C@@H](N)[C@H]4C3)cc2)[nH]c(=O)c(C(=O)O)c1O.Cl [Cpd 264, 6-{4-[(3aR,4R,6aS)-4-aminohexahydrocyclopenta[c]pyrrol-2(1H)-yl]phenyl}-5-ethyl-4-hydroxy-2-oxo-1,2-dihydropyridine-3-carboxylic acid hydrochloride] | < 1 µg/mL | 1 to 3.5 µg/mL | 3.5 to 12.5 µg/mL | 1 to 3.5 µg/mL | 12.5 to 150 µg/mL | 3.5 to 12.5 µg/mL | 12.5 to 150 µg/mL | 3.5 to 12.5 µg/mL | 12.5 to 150 µg/mL | 12.5 to 150 µg/mL | 12.5 to 150 µg/mL | 3.5 to 12.5 µg/mL | 1 to 3.5 µg/mL | < 1 µg/mL |  |
| CCc1c(-c2ccc(N3C[C@H]4CC[C@H](N)[C@H]4C3)cc2)[nH]c(=O)c(C(=O)O)c1O.O=C(O)C(F)(F)F [Cpd 265, 6-{4-[(3aR,4S,6aS)-4-aminohexahydrocyclopenta[c]pyrrol-2(1H)-yl]phenyl}-5-ethyl-4-hydroxy-2-oxo-1,2-dihydropyridine-3-carboxylic acid trifluoroacetate] |  | 3.5 to 12.5 µg/mL | 12.5 to 150 µg/mL | 3.5 to 12.5 µg/mL | 12.5 to 150 µg/mL | 3.5 to 12.5 µg/mL | 12.5 to 150 µg/mL | 3.5 to 12.5 µg/mL | 12.5 to 150 µg/mL | 12.5 to 150 µg/mL | 12.5 to 150 µg/mL | 12.5 to 150 µg/mL | 3.5 to 12.5 µg/mL | 1 to 3.5 µg/mL | MIC [1]: 1 to 3.5 µg/mL |
| CCc1c(-c2ccc(N3C[C@H]4CCC[C@H](NC)[C@H]4C3)cc2)[nH]c(=O)c(C(=O)O)c1O.Cl [Cpd 268, 5-ethyl-4-hydroxy-6-{4-[(3aR,4S,7aS)-4-(methylamino)octahydro-2H-isoindol-2-yl]phenyl}-2-oxo-1,2-dihydropyridine-3-carboxylic acid hydrochloride] | 1 to 3.5 µg/mL | 3.5 to 12.5 µg/mL | 3.5 to 12.5 µg/mL | 1 to 3.5 µg/mL | 12.5 to 150 µg/mL | 3.5 to 12.5 µg/mL | 12.5 to 150 µg/mL | 12.5 to 150 µg/mL | 12.5 to 150 µg/mL | 12.5 to 150 µg/mL | 12.5 to 150 µg/mL | 12.5 to 150 µg/mL | 3.5 to 12.5 µg/mL | 3.5 to 12.5 µg/mL |  |
| CCc1c(-c2ccc(N3C[C@@H]4[C@H](C3)[C@H]4NC)cc2)[nH]c(=O)c(C(=O)O)c1O [Cpd 270, 5-ethyl-4-hydroxy-6-{4-[(1R,5S,6s)-6-(methylamino)-3-azabicyclo[3.1.0]hex-3-yl]phenyl}-2-oxo-1,2-dihydropyridine-3-carboxylic acid hydrochloride] | < 1 µg/mL | < 1 µg/mL | 3.5 to 12.5 µg/mL | 1 to 3.5 µg/mL | 12.5 to 150 µg/mL | 3.5 to 12.5 µg/mL | < 1 µg/mL | < 1 µg/mL | 12.5 to 150 µg/mL | 12.5 to 150 µg/mL | 1 to 3.5 µg/mL | < 1 µg/mL | < 1 µg/mL | < 1 µg/mL |  |
| CCc1c(-c2ccc(N3CC4CCCNC4C3)cc2)[nH]c(=O)c(C(=O)O)c1O.Cl (stereo not shown) [Cpd 272, 5-ethyl-4-hydroxy-6-[4-(octahydro-6H-pyrrolo[3,4-b]pyridin-6-yl)phenyl]-2-oxo-1,2-dihydropyridine-3-carboxylic acid hydrochloride] | < 1 µg/mL | < 1 µg/mL | 3.5 to 12.5 µg/mL | < 1 µg/mL | 3.5 to 12.5 µg/mL | 1 to 3.5 µg/mL | 1 to 3.5 µg/mL | < 1 µg/mL | 3.5 to 12.5 µg/mL | 12.5 to 150 µg/mL | 3.5 to 12.5 µg/mL | < 1 µg/mL | < 1 µg/mL | < 1 µg/mL |  |
| CCc1c(-c2ccc(N3CCC(N(C)C)C3)cc2)[nH]c(=O)c(C(=O)O)c1O.Cl (stereo not shown) [Cpd 275, 6-{4-[3-(dimethylamino)pyrrolidin-1-yl]phenyl}-5-ethyl-4-hydroxy-2-oxo-1,2-dihydropyridine-3-carboxylic acid hydrochloride] | < 1 µg/mL | < 1 µg/mL | 12.5 to 150 µg/mL | 1 to 3.5 µg/mL | 3.5 to 12.5 µg/mL | 1 to 3.5 µg/mL | 1 to 3.5 µg/mL | 1 to 3.5 µg/mL | 1 to 3.5 µg/mL | 12.5 to 150 µg/mL | 3.5 to 12.5 µg/mL | < 1 µg/mL | < 1 µg/mL | < 1 µg/mL |  |
| CCc1c(-c2ccc(N3CC4CC4(N)C3)cc2)[nH]c(=O)c(C(=O)O)c1O.Cl (stereo not shown) [Cpd 277, 6-[4-(1-amino-3-azabicyclo[3.1.0]hex-3-yl)phenyl]-5-ethyl-4-hydroxy-2-oxo-1,2-dihydropyridine-3-carboxylic acid hydrochloride] | < 1 µg/mL | 1 to 3.5 µg/mL | 3.5 to 12.5 µg/mL | 3.5 to 12.5 µg/mL | 12.5 to 150 µg/mL | 12.5 to 150 µg/mL | 3.5 to 12.5 µg/mL | 1 to 3.5 µg/mL | 12.5 to 150 µg/mL | 12.5 to 150 µg/mL | 12.5 to 150 µg/mL | 1 to 3.5 µg/mL | 1 to 3.5 µg/mL | < 1 µg/mL |  |
| CCc1c(-c2ccc(N3CCC(C(C)(C)N)C3)cc2)[nH]c(=O)c(C(=O)O)c1O.Cl (stereo not shown) [Cpd 279, 6-{4-[3-(2-aminopropan-2-yl)pyrrolidin-1-yl]phenyl}-5-ethyl-4-hydroxy-2-oxo-1,2-dihydropyridine-3-carboxylic acid hydrochloride] | < 1 µg/mL | 1 to 3.5 µg/mL | 12.5 to 150 µg/mL | < 1 µg/mL | 3.5 to 12.5 µg/mL | 1 to 3.5 µg/mL | 12.5 to 150 µg/mL | 3.5 to 12.5 µg/mL | 3.5 to 12.5 µg/mL | 12.5 to 150 µg/mL | 12.5 to 150 µg/mL | 3.5 to 12.5 µg/mL | 3.5 to 12.5 µg/mL | 12.5 to 150 µg/mL |  |
| CCc1c(-c2ccc(N3C[C@H]4CCC[C@@H](NC)[C@H]4C3)cc2)[nH]c(=O)c(C(=O)O)c1O.Cl [Cpd 296, 5-ethyl-4-hydroxy-6-{4-[(3aR,4R,7aS)-4-(methylamino)octahydro-2H-isoindol-2-yl]phenyl}-2-oxo-1,2-dihydropyridine-3-carboxylic acid hydrochloride] | < 1 µg/mL | 1 to 3.5 µg/mL | 1 to 3.5 µg/mL | < 1 µg/mL | 12.5 to 150 µg/mL | 3.5 to 12.5 µg/mL | 12.5 to 150 µg/mL | 1 to 3.5 µg/mL | 3.5 to 12.5 µg/mL | 12.5 to 150 µg/mL | 12.5 to 150 µg/mL | 3.5 to 12.5 µg/mL | 3.5 to 12.5 µg/mL | < 1 µg/mL |  |

From patent publication US9650395B2, “Antibacterial compounds and methods for use” (PTC Therapeutics, Inc., priority 2011, dated 2017)
